Entries after “also recorded” stand apart in the source; their conditions may differ.
Key:
[1] = system: SW-48 (WT-p53) colon cancer cells; assay: Cell viability / clonogenic survival with and without mot-2 inhibitor MKT-077; assay type: cell-based, human; parameters: dose or concentration left out as unconfirmed; conditions: VTD with mot-2 inhibitor MKT-077, 72 hours
Description: We decided to confirm whether VTD-induced tumor suppression is indeed mediated via the UBXN2A-mot-2-p53 axis (FIG. 18H). After initial verification with WB (FIG. 18A), HCT-116 (p53+/+ and p53 −/−) and LoVo were treated with VTD for 24, 48, and 72 hours (FIG. 18B-D). […] We defined this phenomenon as a delayed cytotoxic response, since it occurs through UBXN2A transcription, as previously described for other anti-cancer agents. […] In the second set of experiments, we treated two stable UBXN2A silenced clones of HCT-116 along with controls with VTD. […] Staurosporine-treated cells were used as a positive control (S4F). […] Finally, to understand the contribution of mot-2 to the anti-cancer mechanism of VTD, we used a mot-2 inhibitor known as MKT-077 [7] along with VTD in well-differentiated SW-48 (WT-p53) colon cancer cells for 72 hours. Due to the critical role of mot-2 in the mitochondria, we could not use a silencing strategy for mot-2 in this set of experiments.
FIG. 18: Veratridine (VTD) functions via the UBXN2A-mot-2-p53 axis. (A) WB confirmed the presence and the absence of p53 protein in HCT-116 p53^(+/+) and HCT-116 p53^(−/−) cancer cell lines, respectively. […] (F) In another set of experiments, UBXN2A-silenced cells were treated with VTD (100, 200, and 300 μM) for 24 hours. Cells were then labelled with Sytox Red followed by flow cytometry analysis. […] (G) SW48 well-differentiated colon cancer cells with WT-p53 were treated with MKT-077 (5 mg/ml), an mot-2 inhibitor, along with VTD for 72 hours. […] (H) This flowchart recapped the sequence of proteins which activate and function upon VTD exposure to decrease cell viability. The data is shown as mean±SEM of three independent experiments (n=3) in triplicate where *p<0.05 using Benferroni's modified student's t-test.

HCT-116 [2] = system: HCT-116
Description: (§1) Besides the cell viability assay, we decided to measure the apoptotic activity in the above combination therapy.
(§2) Cells were treated with 5-FU (5-100 μM) and etoposide (1-50 μM) along with VTD (30 and 100 μM respectively) in two different set of experiments for 24 hours.
(§3) An MTT (3[4, 5-dimethylthiazol-2-yl]-2, 5-diphenyltetrazolium bromide) assay was performed to measure the viability of cells. Briefly, cells were seeded at a density of 10×10^3 cells per well in phenol-red free growth media. After 24 hours, cells were treated with various concentrations of VTD±5-FU or etoposide. After incubation, an MTT dye was added to the cells for 2-4 hours. The absorbance of samples was measured at 630 nm using an EXL808 absorption spectrophotometer (Biotek, Winooski). The viability of cells was calculated as % of control. Cell detachment and clonogenic survival assays were conducted as previously described. Early apoptosis, caspase-3, cleaved PARP and Sytox Red (Life Technology, NY, USA) were measured by the Accuri C6 flow cytometer system (BD Pharmingen, MD, USA).[54]
(§4) (A-H) (A-C) HCT-116 and (D-F) LoVo were treated with VTD (10-300 μM) for 24, 48, and 72 hours. A suboptimal dose of Etoposide (ETO) ([…]) was added to cells for the last 24 hours only. The viability of cells was determined as % of control (untreated cells) using an MTT assay. […] (G-H) HCT-116 (G) and LoVo (H) cells were treated with VTD (10-200 μM) and a suboptimal dose of ETO (5 μM) for 24 hours. Cells were then stained with Annexin V apoptotic marker. […] (I-L) HCT-116 and LoVo cells were treated with different doses of 5-FU (5-100 μM, I-J) and ETO (1-50 μM, K-L) along with VTD (30 μM and 100 μM respectively) for 24 hours.

LoVo [3] = system: LoVo
Description: as §1, §2, §3, §4

HCT-116 [4] = assay: Annexin V early apoptosis, VTD plus etoposide; assay type: cell-based, human; conditions: VTD 10-200 μM plus etoposide 5 μM, 24 hours
Description: (§5) The viability of cells was calculated as % of control.
(§6) Cells were then stained with Annexin V apoptotic marker.

LoVo [5] = assay: Annexin V early apoptosis, VTD plus etoposide; assay type: cell-based, human; conditions: VTD 10-200 μM plus etoposide 5 μM, 24 hours
Description: as §5, §6

UBXN2A = assay: RT-PCR and western blot of UBXN2A in etoposide-treated HCT-116 cells; assay type: cell-based, human
p53 = assay: Western blot of p53 in cytoplasm and nuclear fractions of etoposide-treated HCT-116 cells; assay type: cell-based, human; conditions: 20 and 50 μM etoposide, 24 h
Description: Small molecules, p53 c-terminus peptides, and silenced mot-2 abrogate mot-2-p53 complexes, resulting in p53 nuclear localization. Because UBXN2A is capable of releasing p53 from mot-2, we decided to determine whether UBXN2A can lead to p53 nuclear accumulation in a similar mechanism. HCT-116 cells were transiently transfected with different amounts of UBXN2A plasmid. Exogenous UBXN2A was detected dominantly in the cytoplasm fraction (FIG. 4a), and, therefore, it is an ideal model to identify the cellular consequences of UBXN2A gain-of-function. After 48 h, nuclear and cytoplasmic fractions were collected, followed by WB analysis (FIGS. 4a-d). […] Similar to several previously reported scenarios,^23 co-upregulation of UBXN2A with p53 may be essential to inhibiting mot-2 and delivering maximum p53 into nuclei during the initiation of genotoxic stress. Similar results were obtained in response to single DNA-strand damage produced by UVB irradiation. In the next step, we decided to determine whether UBXN2A increases the transcriptional activities of p53. We found overexpression of UBXN2A led to upregulation of BAX protein^24 (FIG. 4g). In addition, the level of cleaved PARP increased in the presence of overexpressed UBXN2A (FIG. 4g). […]

p53-mot-2 = target: T1, p53-mot-2 (Homo sapiens, UniProt P38646); assay: In vitro competition immunoprecipitation assay (mot-2, p53, recombinant UBXN2A); assay type: binding
T1 construct: purchased SignalChem (Richmond, CANADA)
Description: Because mot-2 binds to the […] of p53 and sequesters WT-p53 in the cytoplasm, we asked whether binding UBXN2A to mot-2 can alter mot-2's affinity for p53. […] That is, the two complexes might be mutually exclusive. To further determine whether the binding of mot-2 to UBXN2A decreases the binding of mot-2 to p53, we performed two set of immunoprecipitation experiments with recombinant UBXN2A. FIG. 3a describes an in vitro competition immunoprecipitation assay system containing mot-2, p53, and an increasing amount of recombinant UBXN2A. […] The lowest binding between p53-mot-2 was observed when UBXN2A and mot-2 were present in approximately a 1:1 ratio by their molecular mass (lane 1 versus lane 2). In FIG. 3b, cytosolic fractions enriched with mot-2 and p53 proteins (fractions 3-5, FIG. 2e) were incubated with recombinant GST-tag human UBXN2A protein. After the initial 2 h of incubation, samples were subjected to immunoprecipitation with anti-p53 antibodies. GST-UBXN2A and endogenous mot-2 ratio was 2.5:1 in the reaction. […] Next, we decided to verify whether endogenous UBXN2A can interfere with mot-2-p53 binding using an ex vivo model. […]
FIG. 3 UBXN2A and p53 compete for binding to mot-2. […] Mot-2 proteins were eluted from the beads and analyzed by western blotting using an anti-mot-2 antibody. […]

T1 sequence (P38646 47-679): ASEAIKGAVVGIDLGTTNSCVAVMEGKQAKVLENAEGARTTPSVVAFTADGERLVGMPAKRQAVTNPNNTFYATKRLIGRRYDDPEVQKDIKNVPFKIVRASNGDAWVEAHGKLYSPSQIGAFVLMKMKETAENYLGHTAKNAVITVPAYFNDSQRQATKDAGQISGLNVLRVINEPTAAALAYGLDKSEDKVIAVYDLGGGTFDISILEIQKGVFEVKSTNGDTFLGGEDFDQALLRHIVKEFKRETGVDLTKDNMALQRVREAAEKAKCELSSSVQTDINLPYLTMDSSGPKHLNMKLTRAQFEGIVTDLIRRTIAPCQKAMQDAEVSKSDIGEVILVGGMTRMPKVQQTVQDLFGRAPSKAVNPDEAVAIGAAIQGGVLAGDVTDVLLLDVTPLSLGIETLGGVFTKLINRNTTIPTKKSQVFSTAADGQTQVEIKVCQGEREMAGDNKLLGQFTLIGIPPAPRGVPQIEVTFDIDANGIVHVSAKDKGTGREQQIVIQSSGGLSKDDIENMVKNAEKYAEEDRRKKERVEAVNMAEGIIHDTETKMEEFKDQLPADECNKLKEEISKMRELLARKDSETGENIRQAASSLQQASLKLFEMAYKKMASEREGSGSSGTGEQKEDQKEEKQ

Molecule: CCn1c(=O)/c(=C2\Sc3ccccc3N2C)s/c1=C\c1cccc[n+]1CC.[Cl-] [MKT-077]
- cell viability / colony number [1]: neutralizes the cytotoxic effect of VTD

Molecule: COc1cc([C@@H]2c3cc4c(cc3[C@@H](O[C@@H]3O[C@@H]5CO[C@@H](C)O[C@H]5[C@H](O)[C@H]3O)[C@H]3COC(=O)[C@H]23)OCO4)cc(OC)c1O [etoposide]
- cell viability (MTT), combination (HCT-116 [2]): significantly enhanced the VTD-induced decrease in cell viability
- cell viability (MTT), combination (LoVo [3]): significantly enhanced the VTD-induced decrease in cell viability
- effectiveness of etoposide alone (MTT) (LoVo [3]; LoVo versus HCT-116, time-dependent): more effectiveness in well differentiated cells (LoVo) than HCT-116 cells
- early apoptosis (Annexin V) (HCT-116 [4]): significantly sensitizes
- early apoptosis (Annexin V) (LoVo [5]): significantly sensitizes
- UBXN2A protein (UBXN2A; etoposide 20 and 50 μM, 24 h): increased; also recorded: significant upregulation of UBXN2A
- UBXN2A mRNA (UBXN2A; etoposide 24 h): increased; also recorded: enhances transcription of UBXN2A
- p53 upregulation and nuclear localization (p53): upregulation and nuclear localization of p53 becomes significant

B1: recombinant human UBXN2A: recombinant GST-tag human UBXN2A protein (SignalChem) (protein, UniProt P68543 1-259, looked up)
UBX domain-containing protein …: MKDVDNLKSIKEEWVCETGSDNQPLGNNQQSNCEYFVDSLFEEAQKVSSKCVSPAEQKKQVDVNIKLWKNGFTVNDDFRSYSDGASQQFLNSIKKGELPSELQGIFDKEEVDVKVEDKKNEICLSTKPVFQPFSGQGHRLGSATPKIVSKAKNIEVENKNNLSAVPLNNLEPITNIQIWLANGKRIVQKFNITHRVSHIKDFIEKYQGSQRSPPFSLATALPVLRLLDETLTLEEADLQNAVIIQRLQKTASFRELSEH
modifications: GST tag
- mot-2 protein-bound p53 (p53-mot-2; HCT-116 cytosolic fractions 3-5, GST-UBXN2A to endogenous mot-2 ratio 2.5:1, 2 h): decreased the amount of mot-2 protein-bound p53
- mot-2 pulled down by anti-p53 antibodies (p53-mot-2; recombinant GST-p53, GST-mot-2, increasing amounts of UBXN2A): decreased the intensity of mot-2 bands

Reference: patent US12233129B2, “Methods and compositions for the treatment of cancer” (priority 2019, dated 2025)
